This is an account of results in ChEMBL document CHEMBL1201862, “PubChem BioAssay data set” (2004).

Activity calls are given as the source filed them.

In one test the target is Genome polyprotein (dengue virus type 2, UniProt P29990). Briefly: Dengue-2 NS5 methyltransferase inhibitors, primary screen, biochemical, confirmation dose response (AID 588689). In kind it is functional.
Test [1] in a line: intracellular Trypanosoma cruzi inhibitors in host cells – cell-based, plate reader, cherry-pick samples, set 3, dose response (AID 651818).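 Also: compounds incubated with infected cells for about four days.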 It counts as functional.
For test [2], the target named is Heat shock protein HSP 90-alpha (Homo sapiens, UniProt P07900). It counts as functional, organism-based.
Test [3] deals with T1, Long-chain-fatty-acid--AMP ligase FadD28 (Mycobacterium tuberculosis, UniProt P9WQ59).
T1 sequence (P9WQ59 whole entry): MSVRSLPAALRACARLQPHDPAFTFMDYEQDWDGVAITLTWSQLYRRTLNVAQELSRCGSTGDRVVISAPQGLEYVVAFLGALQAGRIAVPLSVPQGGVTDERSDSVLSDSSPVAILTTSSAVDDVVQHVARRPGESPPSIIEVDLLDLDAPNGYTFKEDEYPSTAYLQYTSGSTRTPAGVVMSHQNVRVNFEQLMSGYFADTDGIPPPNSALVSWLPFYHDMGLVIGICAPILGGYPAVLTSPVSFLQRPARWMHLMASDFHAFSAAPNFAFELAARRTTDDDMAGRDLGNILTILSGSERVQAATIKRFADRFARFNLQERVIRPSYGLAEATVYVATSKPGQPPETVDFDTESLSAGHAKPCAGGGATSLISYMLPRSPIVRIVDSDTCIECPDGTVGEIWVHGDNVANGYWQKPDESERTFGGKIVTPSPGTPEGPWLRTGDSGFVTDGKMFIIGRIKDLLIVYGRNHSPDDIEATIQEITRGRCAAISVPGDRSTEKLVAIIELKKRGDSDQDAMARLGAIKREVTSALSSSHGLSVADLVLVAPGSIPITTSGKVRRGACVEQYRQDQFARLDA
Briefly: Fluorescence polarization aasay to screen for inhibitors that compete for the binding of FadD28 to a bisubstrate Measured in Biochemical System Using Plate Reader - 2147-01_Inhibitor_Dose_CherryPick_Activity. In kind it is functional, Mycobacterium tuberculosis H37Rv. In general terms: Fluorescence polarisation rises when a labelled molecule tumbles more slowly, as on binding a larger partner.

The target in test [4] is T2, Short transient receptor potential channel 4 (Mus musculus, UniProt Q9QUQ5).
T2 sequence (Q9QUQ5 whole entry): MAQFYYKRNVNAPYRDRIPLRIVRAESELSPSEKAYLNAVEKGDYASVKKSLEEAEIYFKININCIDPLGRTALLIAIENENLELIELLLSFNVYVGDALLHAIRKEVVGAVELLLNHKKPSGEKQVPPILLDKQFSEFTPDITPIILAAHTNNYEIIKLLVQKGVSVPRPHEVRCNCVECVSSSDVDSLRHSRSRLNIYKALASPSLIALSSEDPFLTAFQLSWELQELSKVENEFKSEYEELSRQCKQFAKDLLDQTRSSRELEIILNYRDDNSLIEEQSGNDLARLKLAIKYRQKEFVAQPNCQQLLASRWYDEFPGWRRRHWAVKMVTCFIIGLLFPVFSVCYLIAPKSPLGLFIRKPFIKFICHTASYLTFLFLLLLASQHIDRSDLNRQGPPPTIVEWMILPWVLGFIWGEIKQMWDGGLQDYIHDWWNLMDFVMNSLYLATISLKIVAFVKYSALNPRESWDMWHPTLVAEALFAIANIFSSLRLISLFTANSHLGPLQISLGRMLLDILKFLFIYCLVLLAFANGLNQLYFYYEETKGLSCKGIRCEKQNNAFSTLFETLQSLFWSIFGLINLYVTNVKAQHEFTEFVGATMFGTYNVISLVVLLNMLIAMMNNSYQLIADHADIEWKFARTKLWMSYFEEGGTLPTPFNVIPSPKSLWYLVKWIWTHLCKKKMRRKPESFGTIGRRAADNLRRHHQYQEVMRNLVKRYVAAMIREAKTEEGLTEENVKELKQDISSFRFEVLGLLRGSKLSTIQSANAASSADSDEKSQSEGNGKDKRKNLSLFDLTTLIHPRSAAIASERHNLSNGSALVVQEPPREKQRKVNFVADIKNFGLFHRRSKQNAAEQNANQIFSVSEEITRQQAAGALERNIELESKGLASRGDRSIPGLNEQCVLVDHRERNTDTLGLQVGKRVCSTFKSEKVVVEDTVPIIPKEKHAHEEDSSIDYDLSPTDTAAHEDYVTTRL
Briefly: mouse TRPC4 channel inhibitors, dose response, cell-based, HEK293 TRPC4/mu-opioid, Fluo-4 calcium (AID 434942).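 Also: potency of inhibitors blocking the TRPC4 calcium response.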 In kind it is functional.

The target of test [5] is T3, Rac GTPase-activating protein 1 (Homo sapiens, UniProt Q9H0H5).
T3 sequence (Q9H0H5 whole entry): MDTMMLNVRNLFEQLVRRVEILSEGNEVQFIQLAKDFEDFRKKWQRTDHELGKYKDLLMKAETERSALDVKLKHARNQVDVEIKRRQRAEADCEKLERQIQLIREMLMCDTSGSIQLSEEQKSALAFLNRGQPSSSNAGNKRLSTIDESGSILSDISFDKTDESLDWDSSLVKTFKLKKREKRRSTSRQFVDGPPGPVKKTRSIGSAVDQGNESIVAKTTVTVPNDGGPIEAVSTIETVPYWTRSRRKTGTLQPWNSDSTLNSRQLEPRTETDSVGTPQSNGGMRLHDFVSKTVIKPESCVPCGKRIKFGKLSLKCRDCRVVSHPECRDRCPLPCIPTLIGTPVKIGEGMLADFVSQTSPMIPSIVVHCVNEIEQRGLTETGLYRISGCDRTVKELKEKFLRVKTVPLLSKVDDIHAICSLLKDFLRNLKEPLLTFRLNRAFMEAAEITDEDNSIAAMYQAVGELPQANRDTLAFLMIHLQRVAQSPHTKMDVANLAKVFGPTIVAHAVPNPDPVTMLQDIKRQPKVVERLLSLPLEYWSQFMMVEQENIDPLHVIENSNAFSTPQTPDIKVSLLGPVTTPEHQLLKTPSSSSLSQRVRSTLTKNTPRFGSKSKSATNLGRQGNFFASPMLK
In words: MgcRacGAP GTPase-activating activity inhibitors, confirmation, biochemical, ADP Hunter fluorescence, primary and confirmatory (AID 624330). It counts as functional.

The target of test [6] is DNA dC->dU-editing enzyme APOBEC-3G (Homo sapiens, UniProt Q9HC16). It counts as functional.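 Also: Dose-response counterscreen measuring inhibition of APOBEC3G DNA deaminase activity, run while confirming APOBEC3A inhibitors.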
Chain of DNA dC->dU-editing enzyme APOBEC-3G (Q9HC16 whole entry): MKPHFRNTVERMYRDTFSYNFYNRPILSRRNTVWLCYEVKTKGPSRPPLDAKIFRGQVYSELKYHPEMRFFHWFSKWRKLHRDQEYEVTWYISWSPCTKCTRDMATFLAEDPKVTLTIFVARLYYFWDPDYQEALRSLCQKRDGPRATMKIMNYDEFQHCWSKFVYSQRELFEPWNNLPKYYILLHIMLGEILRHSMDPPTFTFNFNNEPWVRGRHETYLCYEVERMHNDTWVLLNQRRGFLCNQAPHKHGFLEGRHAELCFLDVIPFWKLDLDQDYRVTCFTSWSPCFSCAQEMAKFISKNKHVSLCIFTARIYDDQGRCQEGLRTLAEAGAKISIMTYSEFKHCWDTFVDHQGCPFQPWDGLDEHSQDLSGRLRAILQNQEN
Test [7] concerns the target DNA dC->dU-editing enzyme APOBEC-3A (Homo sapiens, UniProt P31941). In words: Dose Response confirmation of small molecule APOBEC3A DNA Deaminase Inhibitors via a fluorescence-based single-stranded DNA deaminase assay. [Related pubchem assays (depositor defined):AID493011, AID493024]. In kind it is functional.
Test [8] concerns the target Luciferin 4-monooxygenase (Photinus pyralis, UniProt P08659). In words: firefly luciferase enzyme inhibitors, dose response, biochemical, luminescence (AID 1891).
A short description of test [9]: Luminescence Cell-Based Dose Confirmation HTS to Identify Inhibitors of Platelet Dense Granule Release. [Related pubchem assays: 1663 (Primary HTS), 1678 (Summary of Project)]. In kind it is functional.
For a further test, the system named is HEK293. Briefly: inhibitors of LMP1-driven NF-kB reporter, dose response, cell-based, HEK293, luciferase, cherry-pick (AID 588343). The settings on record: Homo sapiens. It counts as functional.
A further test concerns the target SUMO-activating enzyme (Homo sapiens, UniProt Q9UBT2). Briefly: SUMOylation inhibitor hit validation, confirmation, SUMOylation inhibitor project, biochemical, AlphaScreen (AID 2018). It counts as functional.

Chain of Genome polyprotein (P29990 2492-3391 limits assumed): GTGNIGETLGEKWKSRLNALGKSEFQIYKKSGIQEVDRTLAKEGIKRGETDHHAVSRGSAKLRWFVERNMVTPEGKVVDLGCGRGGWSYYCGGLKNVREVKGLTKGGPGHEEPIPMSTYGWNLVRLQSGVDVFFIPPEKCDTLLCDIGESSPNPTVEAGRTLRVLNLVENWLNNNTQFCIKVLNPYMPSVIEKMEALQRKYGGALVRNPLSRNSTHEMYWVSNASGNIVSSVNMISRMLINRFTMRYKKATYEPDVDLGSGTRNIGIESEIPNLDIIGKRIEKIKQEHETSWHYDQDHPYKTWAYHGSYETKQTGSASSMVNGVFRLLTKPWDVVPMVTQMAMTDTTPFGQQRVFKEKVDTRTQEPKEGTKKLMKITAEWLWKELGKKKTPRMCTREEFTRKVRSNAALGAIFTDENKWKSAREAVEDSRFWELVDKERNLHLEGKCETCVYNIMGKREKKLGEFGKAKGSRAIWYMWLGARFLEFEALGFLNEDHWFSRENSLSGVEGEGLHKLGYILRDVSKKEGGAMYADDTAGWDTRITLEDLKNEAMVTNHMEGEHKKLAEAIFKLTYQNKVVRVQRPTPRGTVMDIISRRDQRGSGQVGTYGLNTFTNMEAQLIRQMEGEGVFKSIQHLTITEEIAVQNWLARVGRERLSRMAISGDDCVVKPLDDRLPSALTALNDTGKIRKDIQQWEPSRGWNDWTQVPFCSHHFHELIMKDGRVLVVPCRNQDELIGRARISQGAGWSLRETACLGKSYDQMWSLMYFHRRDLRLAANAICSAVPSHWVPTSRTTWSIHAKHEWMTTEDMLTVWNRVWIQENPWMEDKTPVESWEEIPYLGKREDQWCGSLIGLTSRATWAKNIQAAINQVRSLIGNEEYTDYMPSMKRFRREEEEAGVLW
Chain of DNA dC->dU-editing enzyme APOBEC-3A (P31941 whole entry): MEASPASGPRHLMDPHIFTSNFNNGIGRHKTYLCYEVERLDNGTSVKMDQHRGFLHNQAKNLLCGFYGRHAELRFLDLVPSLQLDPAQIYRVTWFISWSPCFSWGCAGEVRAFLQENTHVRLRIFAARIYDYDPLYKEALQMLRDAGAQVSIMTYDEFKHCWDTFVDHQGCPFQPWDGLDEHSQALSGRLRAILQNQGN
Chain of Luciferin 4-monooxygenase (P08659 whole entry): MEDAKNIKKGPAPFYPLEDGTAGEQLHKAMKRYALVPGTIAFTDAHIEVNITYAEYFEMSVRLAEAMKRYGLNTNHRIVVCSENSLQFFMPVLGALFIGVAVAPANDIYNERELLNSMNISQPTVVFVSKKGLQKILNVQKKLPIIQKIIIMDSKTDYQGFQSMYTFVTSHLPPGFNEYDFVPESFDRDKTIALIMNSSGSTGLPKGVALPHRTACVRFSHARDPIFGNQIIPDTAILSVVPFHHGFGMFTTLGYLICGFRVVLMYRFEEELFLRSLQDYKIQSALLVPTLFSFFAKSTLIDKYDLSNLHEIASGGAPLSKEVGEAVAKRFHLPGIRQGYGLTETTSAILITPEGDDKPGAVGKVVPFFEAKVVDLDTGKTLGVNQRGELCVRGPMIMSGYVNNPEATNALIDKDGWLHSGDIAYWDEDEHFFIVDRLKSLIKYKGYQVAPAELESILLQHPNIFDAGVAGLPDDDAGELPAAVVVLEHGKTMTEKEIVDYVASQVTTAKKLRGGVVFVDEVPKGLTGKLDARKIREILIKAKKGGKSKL
Chain of SUMO-activating enzyme (Q9UBE0 whole entry): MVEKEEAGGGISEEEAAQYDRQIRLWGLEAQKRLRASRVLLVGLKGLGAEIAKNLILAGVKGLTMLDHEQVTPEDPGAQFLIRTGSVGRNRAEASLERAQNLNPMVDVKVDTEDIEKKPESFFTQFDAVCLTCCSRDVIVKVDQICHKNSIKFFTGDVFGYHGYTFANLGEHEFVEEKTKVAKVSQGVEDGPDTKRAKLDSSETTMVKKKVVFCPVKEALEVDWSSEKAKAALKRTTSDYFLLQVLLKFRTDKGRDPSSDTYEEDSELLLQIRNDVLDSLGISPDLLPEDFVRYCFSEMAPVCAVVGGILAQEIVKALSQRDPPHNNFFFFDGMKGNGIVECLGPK
Chain of SUMO-activating enzyme (Q9UBT2 whole entry): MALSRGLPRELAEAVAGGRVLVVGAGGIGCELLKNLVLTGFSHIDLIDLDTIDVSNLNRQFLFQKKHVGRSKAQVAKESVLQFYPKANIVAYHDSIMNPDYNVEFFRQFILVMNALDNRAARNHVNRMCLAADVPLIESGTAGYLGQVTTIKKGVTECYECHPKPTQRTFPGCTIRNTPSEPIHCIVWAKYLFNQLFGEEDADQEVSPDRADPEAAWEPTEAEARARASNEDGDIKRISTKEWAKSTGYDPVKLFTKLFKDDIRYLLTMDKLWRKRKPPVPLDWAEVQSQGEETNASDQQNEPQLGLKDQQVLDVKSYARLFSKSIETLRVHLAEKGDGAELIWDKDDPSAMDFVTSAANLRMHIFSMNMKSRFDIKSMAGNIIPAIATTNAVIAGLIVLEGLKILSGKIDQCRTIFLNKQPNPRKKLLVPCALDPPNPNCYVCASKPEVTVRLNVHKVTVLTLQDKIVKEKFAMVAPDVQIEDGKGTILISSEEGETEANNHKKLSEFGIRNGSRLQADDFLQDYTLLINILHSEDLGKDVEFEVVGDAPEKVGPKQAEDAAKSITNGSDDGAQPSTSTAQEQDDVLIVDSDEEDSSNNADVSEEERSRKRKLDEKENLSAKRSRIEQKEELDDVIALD

As a reminder, the IC50 is the concentration that gives 50% inhibition. On to `CSc1ccc(C(c2c(C(=O)O)[nH]c3ccccc23)c2c(C(=O)O)[nH]c3ccccc23)cc1`, for which the IC50 on Genome polyprotein is 48.8 µM (active).
The AC50 is the midpoint of the concentration-response curve, whichever way the signal moves. With `C[C@@H]1CN([C@H](C)CO)C(=O)Cc2cc(NC(=O)Nc3ccc4c(c3)OCO4)ccc2O[C@@H]1CN(C)Cc1ccc(C(F)(F)F)cc1`, the AC50 in test [1] is 3.86 µM (active).
Consider `O=C(O)c1ccc(N/N=C/c2ccc(-c3ccccc3)cc2)cc1`, for which the AC50 in test [2] is 3.09 µM (active); in test [3], 10.9 µM (active).
Broadly, the EC50 is the concentration giving half of the maximal effect. On to `CSc1nsc(NC(=O)Cc2ccccc2)n1`, for which the EC50 in test [4] was 5.31 µM (active).
As for `O=C(O)CCn1cc(C=C2C(=O)NC(=O)NC2=O)c(-c2ccc(Br)cc2)n1`, the IC50 was 95.3 µM (active) in test [5] and 7.97 µM (active) on Genome polyprotein.
Regarding `COCc1cc(C)nc(Sc2nc3c(c(=O)n(C)c(=O)n3C)n2C)c1C#N`, the half-maximal inhibitory concentration (IC50) in test [6] is 8.47 µM (active); in test [7], 7.99 µM (active).
Regarding `CCCCCCC(=O)N(O)C1CC(=O)N(c2ccc(F)cc2)C1=O` (stereo unspecified), the AC50 in test [2] was 2.58 µM (active).
As for `Cc1ccc(S(=O)(=O)N(C)C[C@H]2Oc3ccc(NS(=O)(=O)c4ccccc4)cc3CC(=O)N([C@H](C)CO)C[C@H]2C)cc1`, the AC50 in test [1] was 2.56 µM (active).
In the case of `NC(=O)C[N+]1(CC#CC(O)(c2ccccc2)c2ccccc2)CCCC1`, the IC50 in test [6] was 2.59 µM (active); in test [7], 2.74 µM (active).
As for `Cc1ccc(C2CN(C)CC2C(=O)c2ccc(F)cc2)cc1` (stereo unspecified), the EC50 in test [4] is 13.3 µM (active).
Turning to `COc1ccc(NC(=O)c2ccccn2)cc1`, the EC50 was 9.53 µM (active) in test [8] and 10.5 µM (active) in test [9]. Besides, the AC50 with HEK293 is 3.65 µM (active).
With `O=C(COC(=O)c1cc(NS(=O)(=O)c2cccs2)ccc1O)Nc1cc(Cl)ccc1Cl`, the IC50 on SUMO-activating enzyme was 28.8 µM (active).
In the case of `COC(=O)c1ccc2ccn(CC(=O)NC(C)C)c2c1`, the figures for the IC50 in test [6] and in [7] were 4.95 µM (active) and 3.92 µM (active), respectively.
In the same order, the values of `COC(=O)C1=C(C)N(CC2CC2)C(NCc2cc(OC)c(OC)c(OC)c2)=N[C@H]1c1ccccc1` are 14 µM (active) and 8.83 µM (active).
As for `CCN1C(=NCC2CC2)N[C@@H](c2ccccc2)C(C(=O)OC)=C1C`, the IC50 was 8.56 µM (active) in test [6] and 3.37 µM (active) in test [7].
Turning to `Cc1ccc([C@H]2C(C(=O)O)=CC[C@@H](c3ccc(Cl)c(Cl)c3)N2S(=O)(=O)c2ccc(C)cc2)cc1`, the IC50 on Genome polyprotein was 38.8 µM (active).
Consider `COC(=O)c1c(NC(=O)CSc2nc[nH]n2)sc(C)c1C`, for which the EC50 in test [4] was 4.73 µM (active).
Take `O=C(O)C1=CC[C@@H](c2ccc(Cl)cc2)N(S(=O)(=O)c2ccc(Cl)cc2)[C@H]1c1cccc(Cl)c1`: the IC50 on Genome polyprotein is 37.4 µM (active).
For `C[C@@H]1CN([C@H](C)CO)C(=O)Cc2cc(NC(=O)Nc3ccc(F)cc3)ccc2O[C@H]1CN(C)Cc1ccc(-c2ccccc2)cc1`, the AC50 in test [1] was 3.36 µM (active).
On the same count and under the same terms, next, `C[C@H]1CN([C@@H](C)CO)C(=O)Cc2cc(NC(=O)Nc3ccc(C(F)(F)F)cc3)ccc2O[C@H]1CN(C)Cc1ccncc1`: 5.53 µM (active).
As to `C[C@H]1CN([C@@H](C)CO)C(=O)Cc2cc(NC(=O)Cc3ccccc3)ccc2O[C@H]1CN(C)Cc1ccc(C(F)(F)F)cc1`, in test [1], the AC50 was 2.61 µM (active).
As for `CCn1c2ccccc2c2cc(NC(=O)c3ccccc3-c3ccccc3C(=O)O)ccc21`, the IC50 on Genome polyprotein is 42.9 µM (active).
